Data as given in patent US8183388B2, “Androgen receptor modulator and uses thereof” (Eli Lilly and Company, priority 2009, dated 2012).

Molecular target: T1, human GR (glucocorticoid receptor) (Homo sapiens, UniProt P04150)
T1 construct: expressed in transfected cells; host or cells: HEK293 (lysate, 293-GR)
T1 sequence (P04150 1-777): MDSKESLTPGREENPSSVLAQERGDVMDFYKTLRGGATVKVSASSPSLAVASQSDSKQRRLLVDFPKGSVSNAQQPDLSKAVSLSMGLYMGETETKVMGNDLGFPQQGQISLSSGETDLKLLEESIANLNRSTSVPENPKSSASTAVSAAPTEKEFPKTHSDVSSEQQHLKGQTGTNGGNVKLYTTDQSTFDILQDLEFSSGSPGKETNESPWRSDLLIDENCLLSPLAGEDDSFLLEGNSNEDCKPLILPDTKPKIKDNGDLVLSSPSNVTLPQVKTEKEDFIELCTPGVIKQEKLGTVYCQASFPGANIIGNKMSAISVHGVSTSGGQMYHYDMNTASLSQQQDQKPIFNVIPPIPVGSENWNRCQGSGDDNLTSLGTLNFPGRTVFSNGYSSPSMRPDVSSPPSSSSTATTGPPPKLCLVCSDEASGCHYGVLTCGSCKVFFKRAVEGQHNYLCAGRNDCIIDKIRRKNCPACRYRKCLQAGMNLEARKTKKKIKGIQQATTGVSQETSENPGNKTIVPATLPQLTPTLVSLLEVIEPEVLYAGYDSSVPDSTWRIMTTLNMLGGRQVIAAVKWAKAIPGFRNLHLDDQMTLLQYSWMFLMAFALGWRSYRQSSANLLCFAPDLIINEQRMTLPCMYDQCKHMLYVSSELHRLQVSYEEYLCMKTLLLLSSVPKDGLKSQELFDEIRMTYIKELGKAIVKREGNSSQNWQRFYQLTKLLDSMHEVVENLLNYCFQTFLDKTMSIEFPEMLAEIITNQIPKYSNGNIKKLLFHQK
Test: Steroid hormone nuclear receptor binding assay, GR
Settings: HEK293 lysate overexpressing human GR, [3H]-dexamethasone
Description: Cell lysates from human embryonic kidney HEK293 cells overexpressing human MR (mineralocorticoid receptor), GR (glucocorticoid receptor), AR (androgen receptor), or PR (progesterone receptor) are used for receptor-ligand competition binding assays to determine Ki values. Typical procedures are provided below
Briefly, steroid receptor competition binding assays are run in a buffer containing 20 mM HEPES buffer (pH=7.6), 0.2 mM EDTA, 75 mM NaCl, 1.5 mM MgCl2, 20% glycerol, 20 mM sodium molybdate, 0.2 mM DTT (dithiothreitol), 20 μg/mL aprotinin and 20 μg/mL leupeptin (assay buffer). Typically, steroid receptor binding assays include radio-labeled ligands, such as 0.25 nM [^3H]-aldosterone for MR binding, 0.3 nM [^3H]-dexamethasone for GR binding, 0.36 nM [^3H]-methyltrienolone for AR binding, and 0.29 nM [^3H]-methyltrienolone for PR binding, and either 20 μg 293-MR lysate, 20 μg 293-GR lysate, 22 μg 293-AR lysate, or 40 μg 293-PR lysate per well. Assays are typically run in 96-well format. Competing test compounds are added at various concentrations ranging from about 0.01 nM to 10 μM. Non-specific binding is determined in the presence of 500 nM aldosterone for MR binding, 500 nM dexamethasone for GR binding, or 500 nM methyltrienolone for AR and PR binding. […] After an incubation of 2 hours, plates are read in a Wallac Microbeta counter. […]

## CC(C)OC(=O)N[C@H]1Cc2c(n(C[C@H]3OCC[C@@H]3O)c3ccc(C#N)cc23)C1 [compound of Formula (I), [(S)-7-Cyano-4-((2R,3S)-3-hydroxytetrahydrofuran-2-ylmethyl)-1,2,3,4-tetrahydrocyclopenta[b]indol-2-yl]-carbamic acid isopropyl ester]
  Ki: > 2000 nM
